Laboratory results as given in patent US7507749B2, “Antitumor agents” (priority 2001, dated 2009).
Like-named read-outs stand apart in the source and are kept apart here.

Experiments:
[1] = system: mammary adenocarcinoma-16/C; assay: Test F: R-enantiomers of 22b and 22c against early staged mammary adenocarcinoma-16/C; assay type: in vivo, C3H female mice
Procedure: C3H female mice were obtained from N.C.I. (D.O.B. was […]; D.O.A. was Jan. 27, 2001). The mice weighed an average of 19.2 gm. Mice were implanted SC with mammary adenocarcinoma-16/C passage-170, a fast growing, highly invasive, highly metastatic tumor (D.O.T. was Mar. 8, 2001; Td was 1.2 days).
The R-enantiomers of both Compound 22c and Compound 22b were each suspended in 3% ethanol, 1% POE-80, 0.5% sodium bicarbonate (by volume) to effect solution, P.B.S. was then added and the pH adjusted to 7 with HCl. Adriamycin (ADRIA; lot number 20338c) was suspended in dH2O to effect solution and the pH was adjusted to 6.0. Mice were administered 0.2 ml per IV injection.

[2] = system: pancreatic ductal adenocarcinoma-03; assay type: in vivo
Procedure: BDF1 female mice were obtained from N.C.I., CRL-Ral (D.O.B. was Feb. 26, 2001; D.O.A. was Mar. 10, 2001). The mice weighed an average of 22.5 gm. Mice were implanted SC with pancreatic ductal adenocarcinoma-03 passage 143. (D.O.T. was May 29, 2001; Td was 2.3 days).
The R-enantiomer of compound 22c was suspended in 3% ethanol, 1% POE-80, 0.25% sodium bicarbonate (by volume) to effect solution. dH2O was then added, and the pH adjusted to 7 with HCl. […] The R-enantiomer of compound 22b was suspended in 3% ethanol, 1% POE-80, 0.5% sodium-bicarbonate (by volume) to effect solution. Then, dH2O was added, and the pH adjusted to 7.5 with HCl. […] Adriamycin (source ADRIA; lot 2033BC) was suspended in dH2O to effect solution, and the pH was 6.0.
Treatment began six days following implant, at which time the tumors were palpable size (126 mg median). The duration of treatment was prolonged (18 days) in order to obtain a clear separation in efficacy between the compounds.

colon carcinoma 26 = conditions: Cg 3; IV 50 mg/kg/inj days 6,8,10,13,15; total 250 mg/kg
[3] = Cage 5, IV 50 mg/kg/inj qd 1-5, total 250 mg/kg
[4] = Cage 5, IV 50 mg/kg/inj qd 1-5, total 250 mg/kg, listed as R-enantiomer of compound 22b
[5] = Cage 6, IV 50 mg/kg/inj days 1,3,5,7, total 200 mg/kg
[6] = Cage 7, IV 30 mg/kg/inj days 1,3,5,7, total 120 mg/kg
[7] = Cg 2, IV 80 mg/kg/inj days 6,9,12,15,18,21,24, total 560 mg/kg
[8] = Cg 3, IV 50 mg/kg/inj days 6,9,12,15,18,21,24, total 350 mg/kg
[9] = Cg 4, IV 31 mg/kg/inj days 6,9,12,15,18,21,24, total 217 mg/kg
[10] = Cg 5, total 592.8 mg/kg, text: SC 31.2 mg/kg/inj qd 6-24 (table prints days 6,9..24 IV)
[11] = Cg 12 in table (Cage 6 in text), total 370.5 mg/kg, text: SC 19.5 mg/kg/inj qd 6-24 (table prints IV)

C[C@@H](Oc1ccc(Oc2ccc3ccc(Cl)cc3n2)cc1)C(=O)O [Compound R-22b, (R) 2-[4-(7-chloroquinolin-2-yloxy)phenoxy]propanoic acid]
% T/C mass [1, 3]: 0% | Activity Rating [1, 3]: +++ (2.0-2.8) | Drug Deaths [1, 3]: 0/5 | Growth Delay [1, 3]: 7.0 days | Log Kill [1, 3]: 2.1 | Median Tumor Mass on Day 10 (Range) [1, 3]: 0 mg | Median time for tumors to 1000 mg (range) [1, 3]: 16.5 (13.5-18) days | Tumor Free day-155 [1, 3]: 0/5 | % T/C mass [1, 4]: 0% | Drug Deaths [1, 4]: no deaths | % T/C mass [1, 5]: 5% | Activity Rating [1, 5]: ++ (1.3-1.9) | Drug Deaths [1, 5]: 0/5 | Growth Delay [1, 5]: 5.8 days | Log Kill [1, 5]: 1.7 | Median Tumor Mass on Day 10 (Range) [1, 5]: 75 mg | Median time for tumors to 1000 mg (range) [1, 5]: 15.3 (14-17) days | Tumor Free day-155 [1, 5]: 0/5 | % T/C mass ([1]; Cage 6, IV 50 mg/kg/inj days 1,3,5,7, total 200 mg/kg, listed as R-enantiomer of compound 22b): 5% | % T/C mass [1, 6]: 32% | Activity Rating [1, 6]: + (0.7-1.2) | Drug Deaths [1, 6]: 0/5 | Growth Delay [1, 6]: 2.5 days | Log Kill [1, 6]: 0.8 | Median Tumor Mass on Day 10 (Range) [1, 6]: 486 mg | Median time for tumors to 1000 mg (range) [1, 6]: 12 (11.5-14) days | Tumor Free day-155 [1, 6]: 0/5 | % T/C mass ([1]; Cage 7, IV 30 mg/kg/inj days 1,3,5,7, total 120 mg/kg, listed as R-enantiomer of compound 22b): 32% | Neuromuscular toxicity ([1]; mouse, in vivo, iv): completely devoid of neuromuscular toxicity | Behavior post injection ([2]; Cage 2, IV 80 mg/kg/inj, lasted only a few minutes): agitated post IV injection | Neuromuscular toxicity ([2]; Cage 2, IV 80 mg/kg/inj, total 560 mg/kg): no neuromuscular toxicity | Behavior post injection ([2]; Cage 5, SC 31.2 mg/kg/inj qd 6-24): not agitated post SC injection | Behavior post injection ([2]; Cage 6 in text, SC 19.5 mg/kg/inj qd 6-24): not agitated post SC injection | % Body Wt change between day 6 and day 24 [2, 7]: +3.7% | % T/C mass [2, 7]: 14.1% | Activity Rating [2, 7]: +++ (2.0-2.8) | CR's [2, 7]: 0/7 | Drug Deaths [2, 7]: 0/7 | Growth Delay [2, 7]: 17.5 days | Log Kill [2, 7]: 2.3 | Median Tumor Mass on Day 24 (Range) [2, 7]: 320 mg | Median time for tumors to 1,000 mg (range) [2, 7]: 34 days | PR's [2, 7]: 2/7 | Tumor Free day-157 [2, 7]: 0/7 | % Body Wt change between day 6 and day 24 [2, 8]: +8.8% | % T/C mass [2, 8]: 29.1% | Activity Rating [2, 8]: ++ (1.3-1.9) | CR's [2, 8]: 1/6 | Drug Deaths [2, 8]: 0/6 | Growth Delay [2, 8]: 11.5 days | Log Kill [2, 8]: 1.5 | Median Tumor Mass on Day 24 (Range) [2, 8]: 658 mg | Median time for tumors to 1,000 mg (range) [2, 8]: 28 days | PR's [2, 8]: 1/6 | Tumor Free day-157 [2, 8]: 0/6 | % Body Wt change between day 6 and day 24 [2, 9]: +10.4% | % T/C mass [2, 9]: 76.2% | Activity Rating [2, 9]: − (<0.7) | CR's [2, 9]: 0/6 | Drug Deaths [2, 9]: 0/6 | Growth Delay [2, 9]: 3.5 days | Log Kill [2, 9]: 0.5 | Median Tumor Mass on Day 24 (Range) [2, 9]: 1722 mg | Median time for tumors to 1,000 mg (range) [2, 9]: 20 days | PR's [2, 9]: 0/6 | Tumor Free day-157 [2, 9]: 0/6 | % Body Wt change between day 6 and day 24 [2, 10]: +3.5% | % T/C mass [2, 10]: 48.9% | Activity Rating [2, 10]: + (0.7-1.2) | CR's [2, 10]: 1/5 | Drug Deaths [2, 10]: 0/5 | Growth Delay [2, 10]: 6.5 days | Log Kill [2, 10]: 0.9 | Median Tumor Mass on Day 24 (Range) [2, 10]: 1105 mg | Median time for tumors to 1,000 mg (range) [2, 10]: 23 days | PR's [2, 10]: 1/5 | Tumor Free day-157 [2, 10]: 1/5 | % Body Wt change between day 6 and day 24 [2, 11]: +10.3% | % T/C mass [2, 11]: 82.7% | Activity Rating [2, 11]: − (<0.7) | CR's [2, 11]: 0/5 | Drug Deaths [2, 11]: 0/5 | Growth Delay [2, 11]: 3.0 days | Log Kill [2, 11]: 0.4 | Median Tumor Mass on Day 24 (Range) [2, 11]: 1868 mg | Median time for tumors to 1,000 mg (range) [2, 11]: 19.5 days | PR's [2, 11]: 0/5 | Tumor Free day-157 [2, 11]: 0/5 | % Body Wt change at nadir (colon carcinoma 26): −6.2% | Activity Rating (colon carcinoma 26): ++ (1.3-1.9) | CR's (colon carcinoma 26): 1/6 | Drug Deaths (colon carcinoma 26): 0/6 | Growth Delay (colon carcinoma 26): 8 days | Log Kill (colon carcinoma 26): 1.4 | Median time for tumors to 700 mg (range) (colon carcinoma 26): 21 (15.5-48) days | PR's (colon carcinoma 26): 1/6 | Tumor Free day-156 (colon carcinoma 26): 0/6 | day of nadir (colon carcinoma 26): 16 days
